Patent US20080032978A1, “SOLUBLE EPOXIDE HYDROLASE INHIBITORS” (Arete Therapeutics, Inc., priority 2006, published 2008)

Key:
[1] = tested on: soluble epoxide hydrolase (sEH); test: Fluorescent assay for mouse and human soluble epoxide hydrolase (CMNPC substrate); type: biochemical
Source text: Fluorescent Assay for Mouse and Human Soluble Epoxide Hydrolase Recombinant mouse sEH (MsEH) and human sEH (HsEH) were produced in a baculovirus expression system as previously reported. Grant et al., J. Biol. Chem., 268:17628-17633 (1993); Beetham et al., Arch. Biochem. Biophys., 305:197-201 (1993). The expressed proteins were purified from cell lysate by affinity chromatography. Wixtrom et al., Anal. […] Protein concentration was quantified using the Pierce BCA assay using bovine serum albumin as the calibrating standard. […] Solutions: Bis/Tris HCl 25 mM 7.0 containing 0.1 mg/mL of BSA (buffer […] at 0.25 mM in DMSO. Mother solution of enzyme in buffer A (Mouse sEH at 6 μg/mL and Human sEH at 5 μg/mL). Inhibitor dissolved in DMSO at the appropriate concentration. Protocol: In a black 96 well plate, fill all the wells with 150 μL of buffer A. Add 2 μL of DMSO in well A2 and A3, and then add 2 μL of inhibitor solution in A1 and A4 through A12. Add 150 μL of buffer A in a row A, then mix several time and transfer 150 μL to row B. Repeat this operation up to row H. The 150 μL removed from row H go to the trash. Add 20 μL of buffer A in column 1 and 2, then add 20 μL of enzyme solution to column 3 to 12. Incubate the plate for 5 minutes in the plate reader at 30° C. During incubation prepare the working solution of substrate by mixing 3.68 mL of buffer A (4×0.920 mL) with 266 μL (2×133 μL) of substrate solution). At t=0, add 30 μL of working substrate solution with multi-channel pipette labeled “Briggs 303” and start the reading ([S]final: 5 μM). Read with ex: 330 nm (20 nm) and em: 465 nm (20 nm) every 30 second for 10 minutes. The velocities are used to analyze and calculate the IC50s.

| % I ([1]; Conc of I 500 nM) [%] | % I ([1]; Conc of I 50 nM) [%] | SMILES | further results |
| --- | --- | --- | --- |
| 95 | – | CN(CC(=O)O)C(=O)C1CCC(NC(=O)NC23CC4CC(CC(C4)C2)C3)CC1 (centres unmarked) [Compound 36, {[4-(3-Adamantan-1-yl-ureido)-cyclohexanecarbonyl]-methyl-amino}-acetic acid] | melting point: 236 to 240 °C |
| 94 | – | CN1CCN(C(=O)c2cccc(NC(=O)Nc3ccc(C(F)(F)F)cc3)c2)CC1 [Compound 19, 1-[3-(4-Methyl-piperazine-1-carbonyl)-phenyl]-3-(4-trifluoromethyl-phenyl)-urea] | – |
| – | – | CN(CC(=O)O)C(=O)c1ccc(NC(=O)NC23CC4CC(CC(C4)C2)C3)cc1 [Compound 6, {[4-(3-Adamantan-1-yl-ureido)-benzoyl]-methyl-amino}-acetic acid] | % I ([1]; Conc of I 5000 nM): 93% |
| 96 | – | CN1CCN(C(=O)c2ccc(NC(=O)NC34CC5CC(CC(C5)C3)C4)cc2)CC1 [Compound 5, 1-Adamantan-1-yl-3-[4-(4-methyl-piperazine-1-carbonyl)-phenyl]-urea] | melting point: 190 to 196 °C |
| – | 88 | O=C(Nc1ccc(OC(F)(F)F)cc1)Nc1ccc(C(=O)N2CCOCC2)cc1 [Compound 26, 1-[4-(Morpholine-4-carbonyl)-phenyl]-3-(4-trifluoromethoxy-phenyl)-urea] | – |
| 77 | – | COCCN1CCN(C(=O)c2ccc(NC(=O)Nc3ccc(F)cc3)cc2)CC1 [Compound 25, 1-(4-Fluoro-phenyl)-3-{4-[4-(2-methoxy-ethyl)-piperazine-1-carbonyl]-phenyl}-urea] | melting point: 248 to 250 °C |
| 96 | – | COCCN1CCN(C(=O)c2ccc(NC(=O)NC34CC5CC(CC(C5)C3)C4)cc2)CC1 [Compound 4, 1-Adamantan-1-yl-3-{4-[4-(2-methoxy-ethyl)-piperazine-1-carbonyl]-phenyl}-urea] | melting point: 191 to 194 °C |
| 86 | – | CN(CC(=O)N1CCOCC1)C(=O)c1ccc(NC(=O)Nc2ccc(C(F)(F)F)cc2)cc1 [Compound 39, N-Methyl-N-(2-morpholin-4-yl-2-oxo-ethyl)-4-[3-(4-trifluoromethyl-phenyl)-ureido]-benzamide] | melting point: 226 to 233 °C |
| – | 93 | CC(C)N1CCN(C(=O)c2ccc(NC(=O)Nc3ccc(C(F)(F)F)cc3)cc2)CC1 [Compound 34, 1-[4-(4-Isopropyl-piperazine-1-carbonyl)-phenyl]-3-(4-trifluoromethyl-phenyl)-urea] | – |
| 92 | – | O=C(NC1CCCCC1)NC1CCC(C(=O)N2CCOCC2)CC1 (centres unmarked) [Compound 40, 1-Cyclohexyl-3-[4-(morpholine-4-carbonyl)-cyclohexyl]-urea] | melting point: 159 to 163 °C |
| 87 | – | O=C(Nc1ccc(Cl)cc1)Nc1cccc(C(=O)N2CCC(N3CCOCC3)CC2)c1 [Compound 10, 1-(4-Chloro-phenyl)-3-[3-(4-morpholin-4-yl-piperidine-1-carbonyl)-phenyl]-urea] | – |
| – | – | O=C(Nc1cccc(C(=O)N2CCC(C(=O)O)CC2)c1)NC12CC3CC(CC(C3)C1)C2 [Compound 13, 1-[3-(3-Adamantan-1-yl-ureido)-benzoyl]-piperidine-4-carboxylic acid] | % I ([1]; Conc of I 5000 nM): 99% |
| 94 | – | O=C(Nc1ccc(Cl)cc1)Nc1ccc(C(=O)N2CCOCC2)cc1 [Compound 2, 1-(4-Chloro-phenyl)-3-[4-(morpholine-4-carbonyl)-phenyl]-urea] | – |
| – | 91 | COCCN1CCN(C(=O)c2ccc(NC(=O)Nc3ccc(OC(F)(F)F)cc3)cc2)CC1 [Compound 28, 1-{4-[4-(2-Methoxy-ethyl)-piperazine-1-carbonyl]-phenyl}-3-(4-trifluoromethoxy-phenyl)-urea] | melting point: 235 to 240 °C |
| 88 | – | CN(C)CCN(C)C(=O)c1ccc(NC(=O)NC23CC4CC(CC(C4)C2)C3)cc1 [Compound 37, 4-(3-Adamantan-1-yl-ureido)-N-(2-dimethylamino-ethyl)-N-methyl-benzamide] | melting point: 150 to 156 °C |
| – | – | O=C(Nc1ccccc1)Nc1ccc(C(=O)N2CCOCC2)cc1 [Compound 1, 1-[4-(Morpholine-4-carbonyl)-phenyl]-3-phenyl-urea] | % I ([1]; Conc of I 5000 nM): 97% |
| – | – | O=C(Nc1ccc(Cl)cc1)Nc1ccc(C(=O)N2CCC(N3CCOCC3)CC2)cc1 [Compound 8, 1-(4-Chloro-phenyl)-3-[4-(4-morpholin-4-yl-piperidine-1-carbonyl)-phenyl]-urea] | % I ([1]; Conc of I 5000 nM): 96% |

| % I ([1]; Conc of I 500 nM) [%] | % I ([1]; Conc of I 50 nM) [%] | SMILES | further results |
| --- | --- | --- | --- |
| – | 87 | O=C(Nc1ccc(C(F)(F)F)cc1)Nc1ccc(F)c(C(=O)N2CCOCC2)c1 [Compound 16, 1-[4-Fluoro-3-(morpholine-4-carbonyl)-phenyl]-3-(4-trifluoromethyl-phenyl)-urea] | – |
| 69 | – | O=C(Nc1ccc(F)cc1)Nc1ccc(C(=O)N2CCOCC2)cc1 [Compound 23, 1-(4-Fluoro-phenyl)-3-[4-(morpholine-4-carbonyl)-phenyl]-urea] | – |
| – | 84 | CN1CCN(C(=O)c2ccc(NC(=O)Nc3ccc(OC(F)(F)F)cc3)cc2)CC1 [Compound 27, 1-[4-(4-Methyl-piperazine-1-carbonyl)-phenyl]-3-(4-trifluoromethoxy-phenyl)-urea] | – |
| 76 | – | O=C(NC1CCC(C(=O)N2CCC(C(=O)O)CC2)CC1)NC12CC3CC(CC(C3)C1)C2 (centres unmarked) [Compound 21, 1-[4-(3-Adamantan-1-yl-ureido)-cyclohexanecarbonyl]-piperidine-4-carboxylic acid] | – |
| 95 | – | CN1CCN(C(=O)c2cc(NC(=O)Nc3ccc(C(F)(F)F)cc3)ccc2F)CC1 [Compound 33, 1-[4-Fluoro-3-(4-methyl-piperazine-1-carbonyl)-phenyl]-3-(4-trifluoromethyl-phenyl)-urea] | – |
| 99 | – | O=C(Nc1ccc(C(F)(F)F)cc1)Nc1cccc(C(=O)N2CCOCC2)c1 [Compound 15, 1-[3-(Morpholine-4-carbonyl)-phenyl]-3-(4-trifluoromethyl-phenyl)-urea] | – |
| – | 97 | O=C(Nc1ccc(C(F)(F)F)cc1)Nc1ccc(C(=O)N2CCOCC2)c(F)c1 [Compound 22, 1-[3-Fluoro-4-(morpholine-4-carbonyl)-phenyl]-3-(4-trifluoromethyl-phenyl)-urea] | – |
| – | 88 | CN1CCN(C(=O)c2ccc(NC(=O)Nc3ccc(C(F)(F)F)cc3)cc2F)CC1 [Compound 30, 1-[3-Fluoro-4-(4-methyl-piperazine-1-carbonyl)-phenyl]-3-(4-trifluoromethyl-phenyl)-urea] | – |
| – | 74 | O=C(Nc1ccc(Cl)cc1)Nc1ccc(C(=O)N2CCOCC2)c(F)c1 [Compound 14, 1-(4-Chloro-phenyl)-3-[3-fluoro-4-(morpholine-4-carbonyl)-phenyl]-urea] | – |
| – | 92 | CC(C)N1CCN(C(=O)c2ccc(NC(=O)Nc3ccc(OC(F)(F)F)cc3)cc2)CC1 [Compound 32, 1-[4-(4-Isopropyl-piperazine-1-carbonyl)-phenyl]-3-(4-trifluoromethoxy-phenyl)-urea] | – |
| – | – | CN(CC(=O)O)C(=O)c1cccc(NC(=O)NC23CC4CC(CC(C4)C2)C3)c1 [Compound 7, {[3-(3-Adamantan-1-yl-ureido)-benzoyl]-methyl-amino}-acetic acid] | % I ([1]; Conc of I 5000 nM): 90% |
| 92 | – | CC(C)N1CCN(C(=O)c2cccc(NC(=O)Nc3ccc(C(F)(F)F)cc3)c2)CC1 [Compound 35, 1-[3-(4-Isopropyl-piperazine-1-carbonyl)-phenyl]-3-(4-trifluoromethyl-phenyl)-urea] | – |
| – | 75 | CN1CCN(C(=O)c2ccc(NC(=O)Nc3ccc(C(F)(F)F)cc3)cc2)CC1 [Compound 18, 1-[4-(4-Methyl-piperazine-1-carbonyl)-phenyl]-3-(4-trifluoromethyl-phenyl)-urea] | – |
| 64 | – | CN1CCN(C(=O)c2ccc(NC(=O)Nc3ccc(F)cc3)cc2)CC1 [Compound 24, 1-(4-Fluoro-phenyl)-3-[4-(4-methyl-piperazine-1-carbonyl)-phenyl]-urea] | – |
| 88 | – | O=C(Nc1ccc(Cl)cc1)Nc1cccc(C(=O)N2CCOCC2)c1 [Compound 3, 1-(4-Chloro-phenyl)-3-[3-(morpholine-4-carbonyl)-phenyl]-urea] | – |
| – | 89 | O=C(Nc1ccc(C(=O)N2CCOCC2)cc1)Nc1ccc(C(F)(F)F)cc1 [Compound 17, 1-[4-(Morpholine-4-carbonyl)-phenyl]-3-(4-trifluoromethyl-phenyl)-urea] | – |
| – | 93 | CN(CCN1CCOCC1)C(=O)c1ccc(NC(=O)Nc2ccc(C(F)(F)F)cc2)cc1 [Compound 41, N-Methyl-N-(2-morpholin-4-yl-ethyl)-4-[3-(4-trifluoromethyl-phenyl)-ureido]-benzamide] | – |

| SMILES | % I ([1]; Conc of I 500 nM) [%] | % I ([1]; Conc of I 50 nM) [%] | further results |
| --- | --- | --- | --- |
| O=C(NC1CCC(C(=O)N2CCOCC2)CC1)NC12CC3CC(CC(C3)C1)C2 (centres unmarked) [Compound 11, 1-Adamantan-1-yl-3-[4-(morpholine-4-carbonyl)-cyclohexyl]-urea] | 96 | – | melting point: 128 to 131 °C |
